Each structure is given as a SMILES string.

One data set addresses CYP 1A2 (Homo sapiens, UniProt P05177). As to the kind of experiment: CYP inhibition. The data set is classed as in vitro ADME.
In a further data set the target is CYP 2D6 (Homo sapiens, UniProt P10635). As to the kind of experiment: CYP inhibition. The data set is classed as in vitro ADME.
The target of data set [1] is T1, TRPM8 (Homo sapiens, UniProt Q7Z2W7). The experiment in a line: HTS cell-based Ca2+ mobilization assay (FLIPR TETRA) in HEK293/hTRPM8 cells, agonist Cooling Agent 10. Further details: expressed in transfected cells. To be noted: HEK293/hTRPM8, Cooling Agent 10 at EC80. The source says:
A functional cell-based assay for the identification of TRPM8 receptor antagonists, optimised to allow high throughput screening at FLIPR^TETRA, was developed in HEK293 cells by stable pure clone selection and functional characterization with a fluorescent calcium sensitive dye.
TRPM8 was cloned into the multiple cloning site of pcDNA3 mammalian expression vector; the obtained construct pcDNA3/hTRPM8 was fully sequence verified and used for the transfection of HEK293 cell line. HEK293 cells stably transfected with TRPM8 gene were maintained in Minimum essential medium. The cells were transfected with the pcDNA3/hTRPM8 vector by electroporation and then selected with medium containing 0.8 mg/ml G418 for 10-15 days.
The following commercial compounds were used as ligands:
Activator: Cooling Agent 10 (Takasago CAS N. 87061-04-9)
Blocker: Capsazepine (SIGMA cat #D_5879)
The experimental activities were performed using FLIPR^TETRA instruments.
HEK293 cells stably transfected with TRPM8 gene were maintained in Minimum essential medium.
The TRPM8 cell line was analysed for the response to a library of compounds using a Ca^2+ mobilization-dependent fluorescence signal in 384 wells microtiter plate format. The analysis was performed using the FLIPR^TETRA (MDC) with the ICCD Camera.
The execution of the assay involved the use of three microtiter plates:
1. Assay plate, containing cells loaded with dye and prepared as follows:
Cells were seeded at 15000 c/well in Poly-D-Lysine coated 384 wells Microtiter Plates in complete medium (25 μl/well).
24 h after seeding, the cell plates were washed with Tyrode assay buffer by the Microplate Washer and 10 μL of Tyrode assay buffer was left in each well.
Cells were then loaded with 10 μL/well of the Fluo-4 NW dye solution by CyBi®-Well pipettor. Each bottle of Fluo4-NW dye (Molecular Probes cat. #F36206, component A) was re-suspended in 8 mL of Tyrode assay buffer and supplemented with 100 μL of water-soluble probenecid (MolecularProbes cat.#F36206, component B).
Dye loaded cell plates were incubated for 1 h at room temperature.
2. Compound Dilution Plate (FIG. 1), containing diluted test compounds, formulated as follows: […]
Column 1: wells containing Assay Buffer plus DMSO 0.5% final
Columns 3-22: wells containing Assay Buffer plus 0.5% DMSO final. To these wells the compounds to be tested were added at 3× concentration.
Column 23: alternating wells of Max Signal Control in second injection (Assay buffer) and Min Signal Control in second injection (Antagonist Capsazepine IC100, 50 μM) in Assay buffer plus 0.5% DMSO final;
Column 24: wells containing Capsazepine (Antagonist) at 8 concentrations in duplicate at final concentrations of 50 μM, 25 μM, 6.25 μM, 3.15 μM, 1.56 μM, 780 nM, […] in Assay buffer plus 0.5% DMSO final.
3. Activator Plate (FIG. 2), containing agonist Cooling Agent 10 at EC80, formulated as follows:
Column 1: Cooling Agent 10 (Agonist) at 8 concentrations dose response in duplicate at final concentrations of 100 μM, 31.6 μM, 10 μM, 3.16 μM, 1 μM, 316 nM, 100 nM, 31.6 nM in Assay buffer;
Columns 2-24: Cooling Agent 10 (Agonist) at EC80 (3 fold concentrated, 20 μM final) in Assay buffer.
The test was carried out according to a procedure comprising the following steps:
1. The samples contained in the wells of the Compound Plate were added to the corresponding wells of the Assay Plate by the FLIPR^TETRA, thus resulting in the addition in Columns 3-22 of the test compounds at 3× concentration to the cells of the assay plates. No mixing was performed in the assay wells and the signal of the emitted fluorescence was recorded for 300 seconds. 2. The samples contained in the wells of the Activator Plate were added to the corresponding wells of the Assay Plate by the FLIPR^TETRA, thus resulting in the addition in Columns 3-22 of the Assay Plate of the agonist compound in addition to the test compounds. The signal of the emitted fluorescence was recorded for 180 seconds.

Data set [2] addresses T1, TRPM8.
Text: (§1) Values were considered significant if the test compound mean was three or more standard deviations away from the positive control agonist mean.
In data set [3] the target is T1, TRPM8. As to the kind of experiment: cell-based.
Text: as §1
A short description of the next data set: Log D. The data set is classed as physicochemical.
Data set [4] can be described thus: Pharmacokinetic profile in rat. To be noted: plasma; for half-life: iv, read-out: t1/2 i.v. rat. The data set is classed as in vivo.
The subject of a further data set is Male Sprague-Dawley rats. As to the kind of experiment: Chronic constriction injury model, mechanical allodynia (von Frey). The data set is classed as in vivo, rat. Conditions: 10 mg/kg i.v., 2 hours post-dosing, CCI rats. How it is done: Male Sprague-Dawley rats were used. Under pentobarbital anesthesia, the sciatic nerve was exposed at mid-thigh level (Bennett G J et al Pain. 33: 87-107, 1988). Four ligatures were loosely tied around the sciatic nerve of the left hind limb to induce enhancement of pain caused by nerve injury. Mechanical allodynia was evaluated by using a set of 8 manual von Frey monofilaments (0.4, 0.6, 1, 2, 4, 6, 8 and 15 g) 18 days after surgery and basal response was recorded.
On day 19 body weight was recorded and compounds 10 and 45 were administered by i.v. route at the dose of 10 mg/kg. 60, 120 and 180 min post dose, mechanical allodynia was tested by evaluation of the Paw Withdrawl Threshold (PWT) and % Maximum Possible Effect (MPE) was calculated according to the following formula: […]
The mechanical allodynia was tested 1 day before treatment and at 2 hours post-dosing. One-way ANOVA followed by Dunnett's test was applied for comparison between vehicle control and test compound treated groups. *p<0.05 is considered significant.

For a further data set, the target named is TRPV1 (Homo sapiens, UniProt Q8NER1). As to the kind of experiment: Calcium influx counterassay, agonist capsaicin. The data set is classed as cell-based. To be noted: 0.1 μM capsaicin = 100%, read-out: Normalized % inhibition (TRPV1); for inhibition at 1 µM: Test Conc. 1 uM; for inhibition at 10 µM: Test Conc. 10 uM. How it is done: In order to address more specifically the potential selectivity issues, a counterassay was carried out for 10, 45 and 118 against TRPV1 and TRPV4 ion channels, both involved in the nociception (Jhaveri M D, et al 2005. Eur. J. Neurosci. 22 (2): 361-70, Brierley S M et al, 2008, Gastroenterology. 2008 June; 134(7):2059-69. ). The ability of each test compound to act as an antagonist of TRPV1 was evaluated with a calcium influx assay.
Sequence of TRPV1 (Q8NER1 whole entry, species assumed): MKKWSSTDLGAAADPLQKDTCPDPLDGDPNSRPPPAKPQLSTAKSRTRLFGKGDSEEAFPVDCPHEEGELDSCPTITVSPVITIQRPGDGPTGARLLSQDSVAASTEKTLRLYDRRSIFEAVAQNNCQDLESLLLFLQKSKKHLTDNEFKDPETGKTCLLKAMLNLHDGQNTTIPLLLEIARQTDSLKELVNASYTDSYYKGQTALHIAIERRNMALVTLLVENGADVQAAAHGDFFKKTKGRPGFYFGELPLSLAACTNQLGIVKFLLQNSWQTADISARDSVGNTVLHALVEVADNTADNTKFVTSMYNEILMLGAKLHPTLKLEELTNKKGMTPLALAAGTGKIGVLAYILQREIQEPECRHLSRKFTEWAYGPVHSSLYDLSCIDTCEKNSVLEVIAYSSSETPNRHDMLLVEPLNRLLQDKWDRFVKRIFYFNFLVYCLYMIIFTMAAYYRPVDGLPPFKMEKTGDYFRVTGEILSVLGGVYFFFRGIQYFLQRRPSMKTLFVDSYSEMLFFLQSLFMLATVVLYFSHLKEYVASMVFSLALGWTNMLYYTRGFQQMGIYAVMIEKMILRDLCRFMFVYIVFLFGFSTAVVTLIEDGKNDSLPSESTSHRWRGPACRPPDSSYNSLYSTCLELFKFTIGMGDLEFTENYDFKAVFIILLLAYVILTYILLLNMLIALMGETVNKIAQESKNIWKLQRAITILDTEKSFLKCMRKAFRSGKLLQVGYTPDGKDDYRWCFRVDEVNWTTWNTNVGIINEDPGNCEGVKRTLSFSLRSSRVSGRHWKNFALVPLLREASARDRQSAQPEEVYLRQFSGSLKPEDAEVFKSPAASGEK

The next data set addresses CYP 3A4 (Homo sapiens, UniProt P08684). The experiment in a line: CYP inhibition. The data set is classed as in vitro ADME.

T1 sequence (Q7Z2W7 whole entry): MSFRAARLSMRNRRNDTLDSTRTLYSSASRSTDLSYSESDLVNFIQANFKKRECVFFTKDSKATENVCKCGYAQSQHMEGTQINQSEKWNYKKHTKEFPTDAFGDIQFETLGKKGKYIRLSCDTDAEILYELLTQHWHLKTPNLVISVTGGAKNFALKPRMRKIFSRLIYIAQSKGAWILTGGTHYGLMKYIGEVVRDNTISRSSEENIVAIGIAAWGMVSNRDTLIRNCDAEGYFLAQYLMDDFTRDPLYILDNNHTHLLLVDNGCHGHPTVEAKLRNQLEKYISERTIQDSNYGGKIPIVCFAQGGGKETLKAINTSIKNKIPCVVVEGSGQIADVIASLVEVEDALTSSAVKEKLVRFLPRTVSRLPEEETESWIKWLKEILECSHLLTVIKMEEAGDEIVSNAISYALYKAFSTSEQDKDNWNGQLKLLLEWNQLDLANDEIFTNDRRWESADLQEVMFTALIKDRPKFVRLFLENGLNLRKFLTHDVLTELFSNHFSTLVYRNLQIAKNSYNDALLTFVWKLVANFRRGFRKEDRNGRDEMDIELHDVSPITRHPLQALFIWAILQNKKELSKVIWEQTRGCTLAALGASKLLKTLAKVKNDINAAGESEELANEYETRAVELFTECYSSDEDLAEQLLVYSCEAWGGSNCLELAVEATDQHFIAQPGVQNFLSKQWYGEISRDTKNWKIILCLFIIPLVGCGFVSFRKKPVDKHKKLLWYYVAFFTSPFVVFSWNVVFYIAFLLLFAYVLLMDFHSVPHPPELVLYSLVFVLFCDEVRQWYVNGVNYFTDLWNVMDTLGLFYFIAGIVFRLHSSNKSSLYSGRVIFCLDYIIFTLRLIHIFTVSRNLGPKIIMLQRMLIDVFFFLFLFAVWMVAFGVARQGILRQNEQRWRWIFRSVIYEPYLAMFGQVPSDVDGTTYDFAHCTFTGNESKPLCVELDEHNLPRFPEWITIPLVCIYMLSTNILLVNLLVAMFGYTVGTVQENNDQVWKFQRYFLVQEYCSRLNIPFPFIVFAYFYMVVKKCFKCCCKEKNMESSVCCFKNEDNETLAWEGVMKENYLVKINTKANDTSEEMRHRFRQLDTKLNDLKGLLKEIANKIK
Sequence of CYP 3A4 (P08684 whole entry): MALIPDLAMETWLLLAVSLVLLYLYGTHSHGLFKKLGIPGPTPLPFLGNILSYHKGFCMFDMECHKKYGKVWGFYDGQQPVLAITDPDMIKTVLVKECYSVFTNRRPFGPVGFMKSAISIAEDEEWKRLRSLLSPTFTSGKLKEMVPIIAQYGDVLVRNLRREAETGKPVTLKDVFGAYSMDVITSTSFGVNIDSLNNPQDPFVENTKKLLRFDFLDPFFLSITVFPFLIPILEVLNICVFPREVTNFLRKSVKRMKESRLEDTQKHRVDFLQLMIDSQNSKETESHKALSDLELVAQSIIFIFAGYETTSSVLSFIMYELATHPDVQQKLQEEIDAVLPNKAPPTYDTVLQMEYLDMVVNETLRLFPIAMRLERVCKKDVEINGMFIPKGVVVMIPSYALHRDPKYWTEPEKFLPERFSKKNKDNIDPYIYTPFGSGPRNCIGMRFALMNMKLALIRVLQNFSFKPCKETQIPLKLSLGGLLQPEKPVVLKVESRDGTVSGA
Sequence of CYP 2D6 (P10635 whole entry): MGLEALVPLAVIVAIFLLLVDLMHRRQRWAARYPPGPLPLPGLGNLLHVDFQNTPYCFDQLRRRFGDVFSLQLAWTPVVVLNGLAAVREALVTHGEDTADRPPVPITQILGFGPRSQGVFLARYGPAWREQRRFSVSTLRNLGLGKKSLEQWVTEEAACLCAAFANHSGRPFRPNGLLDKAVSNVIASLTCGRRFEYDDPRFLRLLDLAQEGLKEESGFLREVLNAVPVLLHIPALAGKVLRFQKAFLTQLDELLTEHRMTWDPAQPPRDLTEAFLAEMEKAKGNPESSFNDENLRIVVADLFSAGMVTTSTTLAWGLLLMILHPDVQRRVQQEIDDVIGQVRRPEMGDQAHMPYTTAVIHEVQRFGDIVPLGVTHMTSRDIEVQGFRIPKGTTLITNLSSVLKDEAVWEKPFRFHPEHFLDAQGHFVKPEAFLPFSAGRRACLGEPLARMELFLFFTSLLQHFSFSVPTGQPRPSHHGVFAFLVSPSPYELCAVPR
Sequence of CYP 1A2 (P05177 whole entry): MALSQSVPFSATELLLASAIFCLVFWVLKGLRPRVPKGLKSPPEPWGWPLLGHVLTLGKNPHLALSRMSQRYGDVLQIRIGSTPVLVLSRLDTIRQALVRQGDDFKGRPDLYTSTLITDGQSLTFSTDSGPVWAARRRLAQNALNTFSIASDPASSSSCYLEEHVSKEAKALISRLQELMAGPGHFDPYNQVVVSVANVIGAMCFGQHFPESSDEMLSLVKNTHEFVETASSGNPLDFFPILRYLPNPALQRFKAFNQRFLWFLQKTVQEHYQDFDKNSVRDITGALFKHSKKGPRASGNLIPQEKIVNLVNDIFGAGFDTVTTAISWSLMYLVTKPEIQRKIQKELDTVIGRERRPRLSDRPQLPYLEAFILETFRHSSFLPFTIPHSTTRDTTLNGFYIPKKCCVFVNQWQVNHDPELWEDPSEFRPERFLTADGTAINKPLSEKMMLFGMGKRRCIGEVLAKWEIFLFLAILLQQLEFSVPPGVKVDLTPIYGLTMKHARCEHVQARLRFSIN

As for `O=C(O)c1sc(-c2ccc(Cl)cc2)nc1OCc1ccc(Cl)cc1` [Compound 45, 4-[(4-chlorobenzyl)oxy]-2-(4-chlorophenyl)-1,3-thiazole-5-carboxylic acid], on CYP 1A2, the “CYP (% inhibition) @10 μM, 1A2” value is on record as <5%. At CYP 2D6, the “CYP (% inhibition) @10 μM, 2D6” value is reported as <5%. Also, the half-inhibitory concentration (IC50) (usually the concentration needed to halve the response being measured) at TRPM8 [1] turned out to be 0.2 nM. The “antagonist activity in calcium influx assay” value on TRPM8 [2] is “confirmed the antagonist activity”. Moreover, the IC50 against TRPM8 [3] is 1000 nM. Besides, in “Log D”, the logD (usually the decadic logarithm of the distribution of all forms, ionised or not, between an organic phase and buffer at a given pH) turned out to be 2.7. The half-life in data set [4] worked out at 240 min. Moreover, the bioavailability – broadly, dose-corrected exposure relative to a reference, in per cent – in data set [4] (oral bioavailability) stood at 60%. Further, the “anti-allodynic activity, mechanical allodynia (PWT, % MPE)” value in the data set with Male Sprague-Dawley rats was “significant anti-allodynic activity”. For the same compound, at TRPV1, the inhibition – broadly, the change of the read-out against control, counted positive when it falls – at 1 µM turned out to be 3.1% and the inhibition at 10 µM was 6.3%. For the same compound, the “CYP (% inhibition) @10 μM, 3A4” value on CYP 3A4 was <5%.

`CCOC(=O)c1sc(-c2cccc(F)c2)nc1O` [Compound 10, ethyl 2-(3-fluorophenyl)-4-hydroxy-1,3-thiazole-5-carboxylate]: at CYP 1A2, the “CYP (% inhibition) @10 μM, 1A2” value is recorded as <5%. Besides, the “CYP (% inhibition) @10 μM, 2D6” value on CYP 2D6 is <5%. Also, the IC50 at TRPM8 [1] stood at 1000 nM. Moreover, the “antagonist activity in calcium influx assay” value at TRPM8 [2] is on record as “confirmed the antagonist activity”. At TRPM8 [3], this compound showed a 50% inhibitory concentration (IC50) of 0.2 nM. For the same compound, in the data set “Log D”, the “log D values” is listed as “low” and the pH-dependent lipophilicity (logD) is 1.59. The half-life in data set [4] was 50 min. Further, in the data set with Male Sprague-Dawley rats, the “anti-allodynic activity, mechanical allodynia (PWT, % MPE)” value is reported as “significant anti-allodynic activity”. Further, on TRPV1, the inhibition at 1 µM was determined as 1.2% and the inhibition at 10 µM is 2.3%. The “CYP (% inhibition) @10 μM, 3A4” value at CYP 3A4 was <5%.
